Results published in ChEMBL document CHEMBL2074024, “Reversal of P-glycoprotein-mediated multidrug resistance by diallyl sulfide in K562 leukemic cells and in mouse liver” (Carcinogenesis, 2004).

What was measured:
[1] = molecular target: T1, ATP-dependent translocase ABCB1 (Homo sapiens, UniProt P08183); assay: TP_TRANSPORTER: drug resistance (vinblastine) in K562/R10 cells; assay type: functional, cell-based
[2] = molecular target: T1, ATP-dependent translocase ABCB1; assay: TP_TRANSPORTER: increase in Doxorubicin intracellular accumulation (Doxorubicin: […]) in K562/R10 cells; assay type: functional, cell-based

T1 sequence (P08183 whole entry): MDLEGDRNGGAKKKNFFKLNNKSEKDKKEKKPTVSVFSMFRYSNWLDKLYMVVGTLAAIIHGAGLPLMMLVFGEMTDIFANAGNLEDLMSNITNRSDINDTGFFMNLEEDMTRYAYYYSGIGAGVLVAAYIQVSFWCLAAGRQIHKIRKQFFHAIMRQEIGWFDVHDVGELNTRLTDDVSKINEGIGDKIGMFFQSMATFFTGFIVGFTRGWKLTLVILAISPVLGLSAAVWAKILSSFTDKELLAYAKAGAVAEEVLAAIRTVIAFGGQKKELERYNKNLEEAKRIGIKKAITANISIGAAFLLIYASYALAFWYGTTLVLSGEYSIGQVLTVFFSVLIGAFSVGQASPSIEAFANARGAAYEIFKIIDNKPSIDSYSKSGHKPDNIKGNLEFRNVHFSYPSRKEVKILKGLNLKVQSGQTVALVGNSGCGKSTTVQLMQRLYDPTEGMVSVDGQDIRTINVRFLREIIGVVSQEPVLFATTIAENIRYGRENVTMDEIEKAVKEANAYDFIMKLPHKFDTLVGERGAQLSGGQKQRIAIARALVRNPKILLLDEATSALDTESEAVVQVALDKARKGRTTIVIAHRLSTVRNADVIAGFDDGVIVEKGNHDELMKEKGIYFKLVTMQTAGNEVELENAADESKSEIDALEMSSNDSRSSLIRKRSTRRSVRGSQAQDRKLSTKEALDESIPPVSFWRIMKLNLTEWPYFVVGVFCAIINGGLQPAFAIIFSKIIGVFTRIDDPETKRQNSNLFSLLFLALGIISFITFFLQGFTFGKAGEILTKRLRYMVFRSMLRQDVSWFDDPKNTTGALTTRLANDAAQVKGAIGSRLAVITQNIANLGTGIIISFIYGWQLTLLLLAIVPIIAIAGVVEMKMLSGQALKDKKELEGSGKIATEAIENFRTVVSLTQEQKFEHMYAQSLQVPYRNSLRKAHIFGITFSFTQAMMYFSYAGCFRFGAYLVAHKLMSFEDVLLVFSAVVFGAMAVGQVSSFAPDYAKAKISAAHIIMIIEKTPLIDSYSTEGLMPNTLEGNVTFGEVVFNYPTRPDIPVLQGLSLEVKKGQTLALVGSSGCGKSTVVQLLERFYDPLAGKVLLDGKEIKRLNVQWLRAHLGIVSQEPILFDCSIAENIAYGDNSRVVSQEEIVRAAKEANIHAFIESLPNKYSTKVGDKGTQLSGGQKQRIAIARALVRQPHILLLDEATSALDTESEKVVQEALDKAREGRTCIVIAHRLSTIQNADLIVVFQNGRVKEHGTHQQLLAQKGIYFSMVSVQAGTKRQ

Activity [1]: inhibitor [+]
Activity [2]: inhibitor [+]
Compound: C=CCSCC=C [DIALLYL SULFIDE]
